# Experimental data published in patent publication US12673038B2, “Antimycotic methoxyflavone and fluconazole combination for inhibiting cryptococcus” (Karl-Franzens-Universität Graz, priority 2019, dated 2026).
# Experiments:
# [1] = tested on: C. albicans SC5314 biofilms; assay: Biofilm inhibition concentration (BIC), CTB staining; type: cell-based; details: Candida albicans, C. albicans SC5314 biofilm formation, mean±SEM, read-out: BIC-50
# [2] = tested on: C. glabrata biofilms; assay: Biofilm inhibition by plating (CFU of biofilm cells); type: cell-based, Candida glabrata; details: different concentrations of 5-MF
# [3] = tested on: S. cerevisiae BY4741; assay: ROS accumulation by DHE to ethidium conversion (flow cytometry); type: cell-based, Saccharomyces cerevisiae; details: day 3 after treatment
# Procedure: S. cerevisiae BY4741 cells were grown in SMD minimal media to mid-log phase and then treated with the indicated concentrations of 5-MF; control cells were treated with the same amount of solvent (DMSO). (A) Clonogenicity was assayed by plating 500 cells on YPD agar plates and colony forming units (CFUs) were counted to calculate survival rates. (B) Yeast cells were analyzed for cell death markers via AnnV/PI co-staining using flow cytometry. (C) The accumulation of reactive oxygen species was monitored by dihydrotethidium (DHE) to ethidium (Eth) conversion using flow cytometry. Assays in (A-C) were performed on day 3 after treatment. […] Data was analyzed by one-way ANOVA and corrected for multiple comparison using a Bonferroni post-hoc test. ns: not significant, * p<0.05, *** p<0.001, **** p<0.0001. […] Accumulation of ROS was determined by dihydroethidium (DHE) staining as described for PI staining, using a 100 ng/mL DHE solution (Sigma, Germany) in PBS. After staining cells were sedimented again and resuspended in PBS to avoid dye deposition. For each sample, at least 30,000 cells were analyzed using flow cytometry (LSRII Fortessa, BD; Ex: 488 nm, Em: 585 nm).
# [4] = tested on: S. cerevisiae BY4741; assay: AnnexinV/PI co-staining for cell death markers (flow cytometry); type: cell-based, Saccharomyces cerevisiae; details: day 3 after treatment, indicated concentrations
# Procedure: S. cerevisiae BY4741 cells were grown in SMD minimal media to mid-log phase and then treated with the indicated concentrations of 5-MF; control cells were treated with the same amount of solvent (DMSO). (A) Clonogenicity was assayed by plating 500 cells on YPD agar plates and colony forming units (CFUs) were counted to calculate survival rates. (B) Yeast cells were analyzed for cell death markers via AnnV/PI co-staining using flow cytometry. (C) The accumulation of reactive oxygen species was monitored by dihydrotethidium (DHE) to ethidium (Eth) conversion using flow cytometry. Assays in (A-C) were performed on day 3 after treatment. […] Data was analyzed by one-way ANOVA and corrected for multiple comparison using a Bonferroni post-hoc test. ns: not significant, * p<0.05, *** p<0.001, **** p<0.0001. […] Cell death markers were assessed by AnnexinV/PI co-staining. Therefore, 1-2×10^7 cells were harvested and treated with 3 μL […]; Sigma, Germany) and 15 μL glucuronidase/arylsulfatase (4.5 U/mL; Roche, Austria) for sphaeroblastation (60 min at 28° C. and 145 rpm). Resulting sphaeroblasts were co-stained with AnnexinV (Roche, Austria) and PI (Sigma, Germany) and analyzed via flow cytometry, using an LSRII Fortessa (BD, Ex: 488 nm; Em: 695 nm for PI and 530 nm for FITC). At least 30,000 cells were analyzed for each sample.
# [5] = tested on: C. glabrata BG2 biofilms; assay: Biofilm inhibition concentration (BIC), XTT staining; type: cell-based, Candida glabrata; details: Nakaseomyces glabratus, BG2BIOFILMS, C. glabrata BG2 biofilm formation, mean±SEM, read-out: BIC-50
# [6] = tested on: Candida albicans; details: according to CN 105 669 625 A; cited from earlier work
# [7] = tested on: C. glabrata BG2; assay: MIC determination, CLSI protocol M27-A3, OD490; type: cell-based, Candida glabrata; details: Nakaseomyces glabratus; C. glabrata BG2 planktonic growth, mean±SEM
# [8] = tested on: S. cerevisiae BY4741; assay: Clonogenic survival assay (CFU plating); type: cell-based, Saccharomyces cerevisiae; details: 200 μM 5-MF, day 3 after treatment, untreated control 100%
# Procedure: S. cerevisiae BY4741 cells were grown in SMD minimal media to mid-log phase and then treated with the indicated concentrations of 5-MF; control cells were treated with the same amount of solvent (DMSO). (A) Clonogenicity was assayed by plating 500 cells on YPD agar plates and colony forming units (CFUs) were counted to calculate survival rates. (B) Yeast cells were analyzed for cell death markers via AnnV/PI co-staining using flow cytometry. (C) The accumulation of reactive oxygen species was monitored by dihydrotethidium (DHE) to ethidium (Eth) conversion using flow cytometry. Assays in (A-C) were performed on day 3 after treatment. […] Data was analyzed by one-way ANOVA and corrected for multiple comparison using a Bonferroni post-hoc test. ns: not significant, * p<0.05, *** p<0.001, **** p<0.0001. […] Yeast strains were streaked on YPD agar plates and allowed to grow for two days at 28° C. or 30° C., plates were then stored for up to one week at 4° C. […] Survival upon treatment with substances or combinations was analyzed by plating serial dilutions of treated cultures onto YPD agar plates. Plates were incubated for two days at 28° C., colony forming units (CFUs) were counted and survival was calculated compared to the untreated control.
# [9] = tested on: C. albicans SC5314; assay: MIC determination, CLSI protocol M27-A3, OD490; type: cell-based, Candida albicans; details: C. albicans SC5314, 50 μM 5-MF, untreated control 100%
smiles,measurement,setting,value
"COc1cccc2oc(-c3ccccc3)cc(=O)c12 [5-MF, 5-methoxyflavone]",IC50,[1],216 ± 26.6 µM
same,number of biofilm cells (CFUs on YPD agar),[2],decreased in a concentration-dependent manner
same,accumulation of reactive oxygen species (DHE to Eth conversion),[3],causes accumulation of reactive oxygen species
same,"cell death markers, PI-positive fraction (AnnV/PI co-staining)",[4],mainly increased the PI-positive fraction in a concentration-dependent manner
same,IC50,[5],224 ± 15.6 µM
same,synergistic antifungal effect with fluconazole,[6],does not show such synergistic effect
same,MIC50,[7],202 ± 35.6 µM
same,"yeast survival (clonogenic assay, CFUs)",[8],31%
same,growth of planktonic cells compared to untreated cells,[9],about 60%
